Experiments:
[1] = system: MDA-MB-435 human breast carcinoma; test: Anchorage Dependent Growth Monolayer Assay (ADGMA), MTS readout; format: cell-based; settings: Homo sapiens, 72 h; 3-day exposure, MDA-MB-435 cells; read-out: IC50 values (average ± S.D.) MDA-MB-435
Source text: (§1) As indicated above, all of the compounds of formula I, and their corresponding pharmaceutically acceptable acid addition salts, are anti-tumor agents and are, therefore, useful in inhibiting the growth of various lymphomas, sarcomas, carcinomas, myelomas, and leukemia cell lines. […] This assay was adapted from the 60 cell line assay used by the National Cancer Institute (NCl) with the following modifications: 1) cell lines representative for the important tumor types, viz., MDA-MB-435 human breast, A549 non-small cell lung, H1299 lung, HCT-116 colon and PC-3 prostate carcinomas, and U2OS osteosarcomas were utilized; and 2) a tetrazolium derivative, viz., 3-(4,5-dimethylthiazol-2-yl)-5-(3-carboxymethoxyphenyl)-2-(4-sulfophenyl)-2H-tetrazolium, inner salt (MTS), was utilized to determine cell density.
(§2) The ADGMA compares the number of viable cells following a 3-day exposure to a test compound relative to a number of cells present at the time the test compound was added. […] The absorbance at 490 nm (A490) of the formazan derivative is proportional to the number of viable cells. The IC50 for a test compound is the concentration of compound required to reduce the final cell number to 50% of the final control cell number. If cell proliferation is inhibited, the assay further defines compounds as cytostatic (cell number after 3-day compound incubation >cell number at time of compound addition) or cytotoxic (cell number after 3-day compound incubation <cell number at time of compound addition).
(§3) The MDA-MB-435 human breast carcinoma and the A549 non-small cell lung carcinoma lines were obtained from the American Type Culture Collection (ATCC) and used between passages 4-20 following thawing. MDA-MB-435 human breast carcinoma and A549 non-small cell lung carcinoma cells were maintained and plated in DME/F12 medium containing 10% fetal bovine serum, 15 mM HEPES (pH=7.4), 100 units/mL penicillin, and 100 µg/mL streptomycin.
(§4) Cell lines are trypsinized and counted using a Coulter counter to determine plating densities. Cells are then plated in their respective maintenance media (100 µL/well) in 96 well plates at the following densities: MDA-MB-435 and U2OS, 3,000 cells/well; A549 and HCT-116, 700 cells/well; H1299, 1,000 cells/well; and PC-3, 2500 cells/well. The number of cells plates as determined in preliminary experiments, results in cell densities of 75-90% of confluency by 4 days after plating. Initial cell densities, assayed one day after plating, are roughly 0.15-0.20 absorbance units greater than the media blank. Ninety-six well plates are seeded on day 0 and the test compounds are added on day 1. A control plate is created for each cell line that receives media only in row A and cells in row B. One day following plating, test compounds are added (in a final volume of 100 µL) to the test plates. Control plates receive 10 µL MTS mixture (prepared fresh on day of addition to cell plates at a ratio of 10 µL of a 0.92 mg/mL solution of PMS to a 190 µL of a 2 mg/mL solution of MTS) and 100 µL media. A490 of control plates is read 4 h after MTS addition to determine initial cell density values for each cell line. Three days after addition of test compound, 10 µL/well of MTS mixture is added to the test plates and A490 is read 4 h later. A490 values for wells containing cells are corrected for media absorbance, then normalized to initial density readings to determine percent net growth. IC50 values are determined from graphs of percent net growth as a function of compound concentration. Percent net growth is calculated as (Cell + Drug A490 - Initial A490/Cell + Drug Vehicle A490 - Initial A490) x 100%.

[2] = system: A549 non-small cell lung carcinoma; test: as above; format: cell-based, human; settings: Homo sapiens, 72 h; 3-day exposure, A549 cells; read-out: IC50 values (average ± S.D.) A549
Source text: as §1, §2, §3, §4

H1299 lung carcinoma = test: as above; format: cell-based; settings: Homo sapiens, NCI-H1299, 72 h; 3-day exposure, H1299 cells; read-out: IC50 values (average ± S.D.) H1299
Source text: as §1, §2
(§5) The H1299 lung, HCT-116 colon, and PC-3 prostate carcinoma cell lines, and U2OS osteosarcoma cell line were obtained from the American Type Culture Collection (ATCC) and used between passages 4-20 following thawing. H1299 and HCT-116 cells were maintained in RPMI 1640 containing 10% FBS, 100 units/mL penicillin and 100 µg/mL streptomycin; PC-3 cells were maintained in Kahn's Modification containing 10% FBS, 100 units/mL penicillin and 100 µg/mL streptomycin; and U2OS cells were maintained in DMEM containing 10% FBS, 100 units/mL penicillin and 100 µg/mL streptomycin.
as §4

HCT-116 colon carcinoma = test: as above; format: cell-based; settings: Homo sapiens, 72 h; 3-day exposure, HCT-116 cells; read-out: IC50 values (average ± S.D.) HCT-116
Source text: as §1, §2, §5, §4

PC-3 prostate carcinoma = test: as above; format: cell-based; settings: Homo sapiens, 72 h; 3-day exposure, PC-3 cells; read-out: IC50 values (average ± S.D.) PC-3
Source text: as §1, §2, §5, §4

U2OS osteosarcoma = test: as above; format: cell-based; settings: Homo sapiens, 72 h; 3-day exposure, U2OS cells; read-out: IC50 values (average ± S.D.) U2OS
Source text: as §1, §2, §5, §4

[3] = system: MDA-MB-435 tumor xenografts; test: Human tumor xenograft growth inhibition in athymic nude mice; format: in vivo; settings: 2 mg/kg iv, 3X/week for 3 weeks
Method: Utilizing this model, one can measure the ability of test compounds to inhibit the growth of human tumor xenografts growing subcutaneously (s.c.) in athymic nude mice. The histologic tumor type employed was MDA-MB-435 breast carcinoma for Ex.1 and 7 and A549 non-small cell lung carcinoma for Ex. 1-3.
MDA-MB-435 human breast carcinoma: Treatments were started 15 d post implantation (3 x 10^6 cells/mouse), when a mean tumor volume of approximately 45 mm^3 was reached. Ex.1 and 7 were administered iv at three times per week for 3 weeks (days 15, 17, 20, 22, 24, 27, 29, and 31), at 3.3, 10, and 33 µmol/kg. Doxorubicin was administered iv at 2 mg/kg using the same schedule. Each data point represents tumor growth (mean ± SEM), or body weight (mean), with an initial group size of n = 8, from a representative experiment performed twice. An asterisk (*) indicates p < 0.05 using a one-tailed Student's t-test.
Toxicity was monitored by recording average group body weights twice weekly, and by daily observation of general health. Efficacy was monitored by taking measurements of tumor length, width, and depth weekly using digital calipers coupled to automated data collectors. Mean tumor volume (MTV) at initiation of therapy was subtracted from final MTV in order to express the actual tumor growth during treatment (A MTV). Anti-tumor activity was expressed as %T/C (A MTV of treated group ÷ Δ MTV of control group X100%). Statistical significance was evaluated using a one-tailed Student's t-test (p<0.05).

| Compound | IC50 [1] | IC50 [2] | IC50 (H1299 lung carcinoma) | IC50 (HCT-116 colon carcinoma) | IC50 (PC-3 prostate carcinoma) | IC50 (U2OS osteosarcoma) | Dead/Total [3] | Δ MTV [3] | %T/C ([3]; * = p<0.05) |
| --- | --- | --- | --- | --- | --- | --- | --- | --- | --- |
| CO[C@@H](C(=O)N[C@H]1CC[C@@H](OC(=O)OCc2ccccc2)CNC1=O)[C@H](O)[C@@H](O)[C@H](O)/C=C/C(C)(C)C [Ex. 4, (2R, 3R, 4S, 5R, 6E)-3,4,5-trihydroxy-2-methoxy-8,8-dimethyl-N-[(3S, 6R)-hexahydro-2-oxo-6-([[phenylmethoxy]carbonyl]oxy)-2H-azepin-3-yl]non-6-enonamide] | 130 ± 70 nM | 158 ± 16 nM | 170 ± 130 nM | 80 ± 10 nM | 80 nM | 250 ± 140 nM | – | – | – |
| COc1cccc2c1C(=O)c1c(O)c3c(c(O)c1C2=O)C[C@@](O)(C(=O)CO)C[C@@H]3O[C@H]1C[C@H](N)[C@H](O)[C@H](C)O1 [doxorubicin, reference compound] | 400 ± 10 nM | 500 ± 160 nM | 430 ± 290 nM | 80 ± 60 nM | 330 ± 120 nM | 130 ± 30 nM | 0/8 | 82 mm^3 | 46* % |
